Assays:
[1] = Medium pH titration by stepwise addition of HCl; assay type: physicochemical; details: 1% SBG with 3 g/l sodium formate or 80 mM MOPS, HCl added (FIG. 6)
Protocol: (§1) Prior to shake flask experiments BG125 was grown from frozen stocks onto LB agar and grown overnight at 37° C. Cells were removed from the plates to 6 mls of SBG1% in test-tubes and grown at 37° C. for three hours. 0.2 mls of the seed culture was used to inoculate a pre-warmed 300 ml nephlometer flask containing 20 mls of the appropriate media. Flasks were incubated at 37° C. (except where indicated) and 300 rpm in a New Brunswick Scientific Shaker. […] The sample was spun in an eppendorf microfuge and 1 ml of supernatant was removed and mixed with 30 μls of perchloric acid HPLC analysis. The remaining supernatant was saved for glucose analysis. All samples were stored at −70° C. until analysis. Medium pH titrations were performed by the stepwise addition of HCl followed by pH measurement. The bactericidal tests of pH and formate on B. subtilis were carried out by growing BG125 as described above in SBG1% to a density of 5×10^6 cfu/ml. The cells were then adjusted to a concentration of 5×10^4 cfu/ml with buffered SBG1% adjusted to the pH indicated, with and without 50 mM formate. Cultures were then incubated at 37° C. with shaking for 3 hours. Samples were taken at 0, 1 2 and 3 hours, serially diluted and plated to LB at 37° C. for determination of cell viability.

[2] = test system: Bacillus subtilis (BG125); experiment: Shake flask growth of BG125 in 1% SBG (Klett reading and flask pH); assay type: cell-based; details: for growth in shake flask compared to other flasks: 1% SBG pH 7, 37° C., 3 g/l (44 mM) sodium formate and/or 80 mM MOPS (FIG. 5)
Protocol: (§2) The Bacillus subtilis strain used was a derivative of I168 called BG125 (hisA1 thr5 trpC2) provided by J. A. Hoch. […] MM294 competent cells (Ausubel et al. 1992, Short Protocols in Molecular Biology. John Wiley and Sons, New York) were used for plasmid construction and propagation. LB broth and agar were used for growing MM294 cells and were supplemented with 50 ug/ml carbenicillin for selection. BG125 was grown on LB agar or in LB liquid medium supplemented with 10 μg/ml of kanamycin for selection.
Trimethaprim was dissolved in 50% ethanol and added to a final concentration of 50 ug/ml where indicated when the growth had reached a Klett reading between 20-30 units. The additions for trimethaprim experiments were added at the following final concentrations: 10 ug/ml glycine, 10 ug/ml methionine, 50 ug/ml thymidine, 20 ug/ml adenosine, and 20 ug/ml guanosine.
(§3) Prior to shake flask experiments BG125 was grown from frozen stocks onto LB agar and grown overnight at 37° C. Cells were removed from the plates to 6 mls of SBG1% in test-tubes and grown at 37° C. for three hours. 0.2 mls of the seed culture was used to inoculate a pre-warmed 300 ml nephlometer flask containing 20 mls of the appropriate media. Flasks were incubated at 37° C. (except where indicated) and 300 rpm in a New Brunswick Scientific Shaker. At the indicated time points, the amount of cell growth was determined by a Klett-Summerson Photoelectric Colorimeter, the pH of the flask was taken using a Corning pH/iometer, and 1.25 mls was removed for further processing. The sample was spun in an eppendorf microfuge and 1 ml of supernatant was removed and mixed with 30 μls of perchloric acid HPLC analysis. The remaining supernatant was saved for glucose analysis. All samples were stored at −70° C. until analysis. Medium pH titrations were performed by the stepwise addition of HCl followed by pH measurement. The bactericidal tests of pH and formate on B. subtilis were carried out by growing BG125 as described above in SBG1% to a density of 5×10^6 cfu/ml. The cells were then adjusted to a concentration of 5×10^4 cfu/ml with buffered SBG1% adjusted to the pH indicated, with and without 50 mM formate. Cultures were then incubated at 37° C. with shaking for 3 hours. Samples were taken at 0, 1 2 and 3 hours, serially diluted and plated to LB at 37° C. for determination of cell viability.

[3] = test system: Bacillus subtilis (BG125); experiment: Metabolic by-products (HPLC) and glucose in shake flask supernatants; assay type: cell-based; details: flasks of FIG. 5: 3 g/l sodium formate, 80 mM MOPS; control about 1.5 g/L
Protocol: as §1

[4] = test system: Bacillus subtilis (BG125); experiment: Bactericidal tests of pH and formate (cell viability by plating); assay type: cell-based
Protocol: as §2, §3

[5] = test system: BG125 with ywcJ (FTAP 2) gene interruption; experiment: Shake flask growth of BG125 with interruption of ywcJ (FTAP 2); assay type: cell-based, Bacillus subtilis; details: 1% SBG, 3 g/l formate, ywcJ (FTAP 2) interruption (FIG. 17)
Text: (§4) The PCR product was digested with BamHI and PstI and ligated with the 5.3-Kb BamHI-PstI fragment from plasmid pUC/Ts/Kan to construct the yrhG-homologue interruption plasmid pTRANS1. […] The PCR product was digested with BamHI and PstI and ligated with the 5.3-Kb BamHI-PstI fragment from plasmid pUC/Ts/Kan to construct the ywcJ-homologue interruption plasmid. […] The sequencing primers used were the mp19/pUC19 24-mer reverse sequencing primer and the mp19/pUC19 24-mer sequencing primer from New England Biolabs.
(§5) Resulting kanamycin resistant transformants were grown overnight in LB liquid medium containing kanamycin at 45° C. Integrants were plated and then colony purified on LB plates containing kanamycin at 45° C. Isolated colonies were then frozen in LB liquid medium plus 30% glycerol at −70° C. for preservation.
(§6) Prior to shake flask experiments BG125 was grown from frozen stocks onto LB agar and grown overnight at 37° C. Cells were removed from the plates to 6 mls of SBG1% in test-tubes and grown at 37° C. for three hours. 0.2 mls of the seed culture was used to inoculate a pre-warmed 300 ml nephlometer flask containing 20 mls of the appropriate media. Flasks were incubated at 37° C. (except where indicated) and 300 rpm in a New Brunswick Scientific Shaker. […]

[6] = test system: BG125 with yrhG (FTAP 1) gene interruption; experiment: Shake flask growth of BG125 with interruption of yrhG (FTAP 1); assay type: cell-based, Bacillus subtilis; details: 1% SBG, 3 g/l formate
Text: as §4, §5, §6

Structure (SMILES) | buffering activity in pH titration [1] | growth in shake flask compared to other flasks [2] | acetate level reached [3] [g/L] | loss of viability ([4]; pH 3.6, 50 mM formate, also without formate) | percent of survivors based on the initial titer ([4]; pH 3.6, one hour, 50 mM formate, 1.8 % without formate) [%] | percent survivors ([4]; pH 4.0, 3 hours, 50 mM formate, 38 % without formate) [%] | viability ([4]; pH 4.6, 50 mM formate) | viability ([4]; pH 7.0, 50 mM formate) | effect of formate on growth of interrupted strain [5] | lag in the initial growth rate ([2]; 3 g/l sodium formate, 1% SBG) | rate of growth when formate was added ([2]; flask containing trimethaprim and growth enhancing additives (FIG. 11)) | duration of the initial lag period ([2]; higher concentrations of sodium formate, up to 21 g/l (FIG. 7)) | culture density reached after the lag period ([2]; sodium formate up to 21 g/l (FIG. 7), versus control flask) | decrease in the growth enhancement normally seen with exogenous formate ([6]; yrhG (FTAP1) interruption (FIG. 16)) [%] | growth enhancement effect of formate in interrupted strain ([6]; yrhG interruption (FIG. 16)) | effect on growth compared to SBG1% alone ([2]; trimethaprim 50 ug/ml added at Klett 20-30, SBG1% (FIG. 11))
O=S(=O)(O)CCCN1CCOCC1 [MOPS, reference compound] | showed buffering activity in the expected range | near the levels of the formate containing flask | ~2 | – | – | – | – | – | – | – | – | – | – | – | – | –
O=C[O-].[Na+] [sodium formate, Sodium formate] | little buffering activity down to pH 5.0 | more total growth | – | lost complete viability within two hours | 0.13 | 1.2 | no decline in viability | no decline of viability | toxic effect which caused a decline of growth well below growth of the control strain with out formate | slight lag | significantly reduced | correlation between increasing concentrations of formate and the duration of the initial lag period | reached higher densities than the control flask | ~50 | reduced the normal growth enhancement effect of formate by half | –
COc1cc(Cc2cnc(N)nc2N)cc(OC)c1OC [trimethaprim, Trimethaprim, reference compound] | – | – | – | – | – | – | – | – | – | – | – | – | – | – | – | inhibitory effect
